From patent publication US12358959B2, “Compositions and methods for oligodendrocyte development” (CHILDREN'S MEDICAL CENTER CORPORATION, priority 2016, dated 2025)
“Also recorded” adds a separate entry of the source.

How the values were obtained:
[1] = system: oligodendrocyte precursors (OPCs); assay: OPC proliferation in culture with recombinant TGM2, BrdU/PDGFRα double immunostaining; type: cell-based, mouse; settings: 2 nM recombinant TGM2, 24 hrs
Method: FIG. 14A depicts a TGM2 western blot on acutely isolated microglia, OPCs, astrocytes and oligodendrocytes. β-actin was used as loading control. FIG. 14B depicts representative images of BrdU (white) and PDGFRα (light gray) double immunostaining on OPC cultured for 24 hrs in proliferation media in the presence and absence of 2 nM recombinant TGM2. Scale bar, 100 μm. FIG. 14C depicts quantification of the percentage of BrdU^+ of total PDGFRα^+ OPCs. *P=0.0492, paired t-test, N=3 per genotype. Error bars are means±s.e.m.
To investigate whether TGM2 directly regulates OPC proliferation in a GPR56-dependent manner, OPCs derived from P5 Gpr56^+/− or Gpr56^−/− pups were cultured in the presence or absence of human recombinant TGM2 (FIGS. 15A and 15B) with the presence of BrdU. The cells were double immunostained for PDGFRα and BrdU (FIG. 14B).

cerebellar slices = assay: Remyelination of LPC-demyelinated cerebellar slice cultures; type: cell-based, mouse; settings: Gpr56+/+;Tgm2−/− cerebellar slices, LPC 24 hr, 4 days of remyelination, TG2 20 nM; listed as Recombinant TG2
Excerpt: FIG. 12D provides composite images created in Image J showing myelinated axons (black) for quantification. FIG. 12E is a graph showing percentage of myelinated axons after remyelination. Remyelination was reduced in cerebellar slices that lacked OPC-derived GPR56. *P=0.0135, paired t-test, N=5 per genotype. FIG. 12F provides representative images of cerebellar slice cultures from P10 Gpr56^+/+; Tgm2^−/− and Gpr56^−/−; Tgm2^−/− mouse cerebella that were demyelinated with LPC for 24 hr followed by 4 days of remyelination in the presence or absence of TG2 (20 nM). Slices were immunostained with NF200 (white) and MBP (light gray); myelinated fibers appear yellow in merged images. Scale bar, 100 μm.
Gpr56^fl/fl;PdgfrαCreER^− and Gpr56^fl/fl;PdgfrαCreER^+ P7 pups were injected with tamoxifen (50 mg kg^−1) for 3 days before the cerebellar harvesting. All cerebella were harvested on P10 and placed in ice-cold Hank's buffer (Fisher Scientific) before being cut into 300 μm thick sagittal sections with a vibratome (Leica Biosystems). Three slices were placed onto inserts (Millicell 0.4 μm, Millipore) in media containing 50% MEM, 25% Horse Serum, 25% Hank's Buffer, 1% GlutaMax, 5 mg/ml Glucose. […] Quantification of myelinated fibers was performed using Image J by subtracting background and applying threshold for both red and green channel, before measuring both myelinated and unmyelinated axon fibers.

RhoA = assay: GTP-Rho pull-down assay in HEK 293T cell pellets; type: cell-based; settings: 10 min, HEK 293T transfected with mouse Gpr56
Method: (§1) HEK 293T cells were transiently transfected with mouse Gpr56 cDNA. Twenty-four hours after transfection, the cells were subject to serum starvation for 36 hr followed by the addition of recombinant TG2 250 nM with/without recombinant laminin-111 12.5 nM, or acetic acid as control for 10 min. The conditioned media were harvested, filtered, and concentrated as previously described. Equal volumes of the concentrated media were used for Western blot (Luo et al., PLOS One 9, e100043, 2014), while the cell pellets were used for GTP-Rho pull-down assay.
The corpus callosums (CCs) were dissected under a Leica stereo microscope (MZ 6; Leica™ Pte Ltd.), followed by washes in PBS and lysis in ice-cold RIPA buffer (1% Nonidet P-40, 50 mM Tris pH 7.6, 120 mM NaCl, 1 mM EDTA) containing protease inhibitor cocktail set 1 (Calbiochem). The lysates were cleared of insoluble materials by centrifugation at 16,000×g for 10 min at 4° C. Protein concentration was determined by a Bio-Rad protein assay method (Bio-Rad) according to the manufacturer's protocol, and equal amounts of protein were used for SDS-PAGE and western blot analysis. The GTP-Rho pull-down assay was performed as previously described (Luo et al., Proc Natl Acad Sci USA 108, 12925-12930, 2011). […] Bound Rho proteins were eluted by Laemmli sample buffer and detected by western blot using mouse monoclonal anti-RhoA antibody (Cytoskeleton).

GPR56 = target: T1, GPR56 (Mus musculus, UniProt Q8K209); assay: TG2 activation assay: GPR56 NTF released into supernatant of HEK 293T cells (Western blot); type: cell-based; settings: 10 min, HEK 293T transfected with mouse Gpr56
T1 construct: expressed in transfected cells; host or cells: HEK 293T
Method: as §1

[2] = TG2 250 nM with laminin-111 12.5 nM

T1 sequence (Q8K209 26-687): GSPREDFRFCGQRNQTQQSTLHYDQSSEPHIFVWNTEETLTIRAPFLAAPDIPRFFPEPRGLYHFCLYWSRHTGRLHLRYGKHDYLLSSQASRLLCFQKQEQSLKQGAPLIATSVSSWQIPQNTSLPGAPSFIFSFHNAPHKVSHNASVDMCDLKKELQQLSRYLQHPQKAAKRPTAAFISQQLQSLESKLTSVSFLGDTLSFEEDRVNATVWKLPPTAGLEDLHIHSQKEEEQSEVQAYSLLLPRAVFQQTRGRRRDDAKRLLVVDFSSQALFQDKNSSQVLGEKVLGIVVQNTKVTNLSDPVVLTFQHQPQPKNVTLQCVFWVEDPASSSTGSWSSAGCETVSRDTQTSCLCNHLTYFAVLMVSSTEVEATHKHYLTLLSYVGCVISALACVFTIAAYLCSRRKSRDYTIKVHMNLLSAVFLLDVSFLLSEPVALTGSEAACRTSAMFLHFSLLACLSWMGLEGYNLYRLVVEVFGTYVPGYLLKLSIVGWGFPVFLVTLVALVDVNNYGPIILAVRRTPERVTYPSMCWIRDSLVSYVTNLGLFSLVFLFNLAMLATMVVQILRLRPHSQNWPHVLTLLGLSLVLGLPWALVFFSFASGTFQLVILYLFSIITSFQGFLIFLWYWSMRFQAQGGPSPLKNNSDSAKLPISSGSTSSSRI

Substance: Transglutaminase 2 [TG2]
- OPC proliferation (percentage of BrdU+ of total PDGFRα+ OPCs) ([1]; proliferation media, OPCs printed as Gpr56−/− (first mention; cultures were Gpr56+/− or Gpr56−/−)): significantly increased
- OPC proliferation (percentage of BrdU+ of total PDGFRα+ OPCs) ([1]; Gpr56−/− OPCs (second mention)): attenuated
- Remyelination (percentage of myelinated axons) (cerebellar slices): rescued remyelination failure; also recorded: promotes remyelination
- Relative level of GTP-RhoA to total RhoA (RhoA; TG2 250 nM alone vs control): n.s.
- Relative level of GTP-RhoA to total RhoA (RhoA; [2]): activating RhoA downstream signaling
- Released GPR56 NTF in supernatant (GPR56; TG2 250 nM alone vs control): n.s.
- Released GPR56 NTF in supernatant (GPR56; [2]): removed the GPR56 NTF
